Data reported in patent publication US9988408B2, “Cytotoxic agents for conjugation to a cell binding molecule” (priority 2013, dated 2018).

Columns and labels:
Ramos cells = assay: In vitro cytotoxicity (potency) against Ramos cells, WST-8 cell viability assay; assay type: cell-based; conditions: Homo sapiens, 120 h, read-out: IC50, in vitro potency against Ramos cells
Experimental: In Vitro Potency Measurement Against Ramos Cells in 37° C., 5 Day Incubation
(§1) General Procedure Used: Samples of unconjugated free drug compounds or drug conjugates were added to 96-well flat bottomed tissue culture plates and titrated using serial dilutions to cover the desired molar range. Antigen positive (Ag^+) or Antigen negative (Ag^−) cells were added to the wells in specific cell densities (1000˜10000 cells/wall) in such a way that there were triplicate samples for each drug concentration for each corresponding cell line. All other cell lines were grown in RPMI-1640 (catalog no. 11875-085, Invitrogen), supplemented with 10% fetal bovine serum and gentamycin. The plates were then incubated at 37° C. in an atmosphere of 5% CO2 for 5 days. At the end of the incubation period cytotoxic potencies were then assessed using a WST-8 based cell viability assay and surviving cells were measured by developing with WST-8 (2-7 hours). The absorbance in each well was measured and the surviving fraction of cells at each concentration was plotted to reveal the cytotoxicity and/or antigen specificity (of the conjugates). The potency and specificity of the antibody-drug conjugates were measured against antigen-expressing cells, with and without the additions of an excess amount of blocking unconjugated antibody to show specificity of the killing effect.

Raji cells = assay: In vitro cytotoxicity (potency) against Raji cells, WST-8 cell viability assay; assay type: cell-based; conditions: Homo sapiens, 120 h, read-out: IC50 values towards Raji cells
Experimental: In Vitro Potency Measurement Against Raji Cells in 37° C., 5 Day Incubation
as §1

Row | SMILES | IC50 (Ramos cells) | IC50 (Raji cells)
1 | COc1cc2c(cc1OCP(=O)(COc1cc3c(cc1OC)C(=O)C1C[C@@H](F)C[C@H]1C=N3)NCCCSSc1ccccn1)N=C[C@@H]1C[C@H](F)CC1C2=O (some centres unmarked) [Example 68] | 0.1 to 0.5 nM | –
2 | C=C1C[C@H]2C=Nc3cc(OCCP(=O)(CCOc4cc5c(cc4OC)C(=O)N4CC(=C)C[C@H]4C=N5)CCSSC)c(OC)cc3C(=O)N2C1 [Example 39] | – | 0.005 to 0.011 nM
